Results published in patent publication US6100279A, “Imidazoylalkyl substituted with a five, six or seven membered heterocyclic ring containing one nitrogen atom” (Schering Corporation, priority 1998, dated 2000).

Target: T1, H3 receptor (Cavia porcellus, UniProt Q9JI35)
T1 construct: The source of the H3 receptors in this experiment was guinea pig brain; from tissue; host or cells: guinea pig brain membranes
Assay: H3 Receptor Binding Assay (displacement of [3H]R-α-methylhistamine or [3H]-N-methylhistamine)
Conditions: guinea pig brain membranes; 3 nM [3H]R-α-methylhistamine or [3H]-N-methylhistamine; 30°, 30 min; duplicate, standard error less than 10%
Procedure: The compounds of this invention are either agonists or antagonists of the histamine H3 receptor. […] The animals used weighed 400-600 g. The tissue was homogenized using a Polytron in a solution of 50 mM Tris, pH 7.5. The final concentration of tissue in the homogenization buffer was 10% w/v. The homogenates were centrifuged at 1000×g for 10 min. in order to remove clumps of tissue and debris. […] The membranes were frozen and stored at -70° C. until needed. All compounds to be tested were dissolved in DMSO and then diluted into the binding buffer (50 mM Tris, pH 7.5) such that the final concentration was 2 μg/ml with 0.1% DMSO. Membranes were then added (400 μg of protein) to the reaction tubes. […] Bound ligand was separated from unbound ligand by filtration, and the amount of radioactive ligand bound to the membranes was quantitated by liquid scintillation spectrometry.

T1 sequence (Q9JI35 whole entry): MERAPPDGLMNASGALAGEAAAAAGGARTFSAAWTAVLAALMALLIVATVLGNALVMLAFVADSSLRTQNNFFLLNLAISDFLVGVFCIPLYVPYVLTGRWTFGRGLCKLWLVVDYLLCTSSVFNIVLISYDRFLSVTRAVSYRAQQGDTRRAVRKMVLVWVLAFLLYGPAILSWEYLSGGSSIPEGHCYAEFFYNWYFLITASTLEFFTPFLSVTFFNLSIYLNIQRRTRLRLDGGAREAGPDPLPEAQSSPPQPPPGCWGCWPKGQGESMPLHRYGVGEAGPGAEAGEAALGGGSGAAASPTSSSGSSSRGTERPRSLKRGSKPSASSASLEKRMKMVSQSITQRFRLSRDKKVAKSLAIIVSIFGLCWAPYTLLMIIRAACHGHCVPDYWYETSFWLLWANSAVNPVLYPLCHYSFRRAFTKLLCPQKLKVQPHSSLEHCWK

| Compound | Ki |
| --- | --- |
| O=C(CCN1CCC(Cc2c[nH]cn2)CC1)Nc1cccc(F)c1 [Compound 94] | 0.1 nM |
| O=C(CN1CCC(Cc2cnc[nH]2)CC1)Nc1ccc(Cl)cc1 [Compound 90] | 90 nM |
| O=C(CCN1CCC(Cc2cnc[nH]2)CC1)Nc1cc(Cl)cc(Cl)c1 [Compound 83] | 0.7 nM |
| O=S(=O)(c1ccc(Cl)cc1)N1CCC(Cc2cnc[nH]2)CC1 [Compound 78] | 150 nM |
| O=C(Nc1cccc(Cl)c1)N1CCC(Cc2cnc[nH]2)CC1 [Compound 91] | 20 nM |
| O=C(Cc1ccc(Cl)c(Cl)c1)N1CCC(CCc2cnc[nH]2)CC1 [Compound 115] | 57 nM |
| O=C(Nc1ccc(Cl)cc1)N1CCC(Cc2cnc[nH]2)CC1 [Compound 92] | 160 nM |
| O=C(CC(=O)N1CCC(Cc2cnc[nH]2)CC1)Nc1cccc(Cl)c1 [Compound 95] | 50 nM |
| O=C(Nc1cccc(Cl)c1)N1CCC(CCc2cnc[nH]2)CC1 [Compound 118] | 210 nM |
| O=C(CCN1CCC(Cc2cnc[nH]2)CC1)Nc1cccc(Cl)c1 [Compound 81] | 0.2 nM |
| O=C(CCOc1ccc(Cl)cc1)N1CCC(Cc2cnc[nH]2)CC1 [Compound 87] | 9 nM |
| O=C(Nc1cc(Cl)cc(Cl)c1)N1CCC(Cc2cnc[nH]2)CC1 [Compound 85] | 220 nM |
| O=C(CCOc1ccccc1)N1CCC(Cc2cnc[nH]2)CC1 [Compound 86] | 5 nM |
| O=C(CCCc1ccccc1)N1CCC(Cc2cnc[nH]2)CC1 [Compound 96] | 8 nM |
| c1ccc(OCCCN2CCC(Cc3cnc[nH]3)CC2)cc1 [Compound 79] | 4 nM |
| O=C(CCc1ccc(Cl)cc1)N1CCC(Cc2cnc[nH]2)CC1 [Compound 93] | 40 nM |
| O=C(CCN1CCC(Cc2c[nH]cn2)CC1)NCCc1ccc(Cl)cc1 [Compound 82] | 0.7 nM |

Next, values leading:

| Ki | Compound |
| --- | --- |
| 5 nM | O=C(CCN1CCC(Cc2cnc[nH]2)CC1)Nc1ccc(I)cc1 [Compound 89] |
| 60 nM | FC(F)(F)c1ccc(NCCCN2CCC(CCc3cnc[nH]3)CC2)cc1 [Compound 114] |
| 9 nM | Clc1ccc(OCCCN2CCC(Cc3cnc[nH]3)CC2)cc1 [Compound 88] |
| 50 nM | O=C(CCN1CCC(CCc2cnc[nH]2)CC1)Nc1ccc(C(F)(F)F)cc1 [Compound 117] |
| 58 nM | O=S(=O)(c1ccc(OC(F)(F)F)cc1)N1CCC(CCc2cnc[nH]2)C1 (centres unmarked) [Compound 97] |
| 0.4 nM | O=C(CCN1CCC(Cc2cnc[nH]2)CC1)Nc1ccc(Cl)cc1 [Compound 84] |
| 0.9 nM | O=C(CCN1CCC(CCc2cnc[nH]2)C1)Nc1ccc(Cl)cc1 (centres unmarked) [Compound 45] |
| 11 nM | O=C(CCN1CCC(CCc2cnc[nH]2)CC1)Nc1ccc(Cl)cc1 [Compound 116] |

Tested on: H3 receptors in rat brain
Assay: not given
Conditions: cited from Arrang et al.; cited from earlier work

| Compound | maximal inhibition of release |
| --- | --- |
| NCCc1c[nH]cn1 [histamine] | approximately 60% |
